Assay results published in patent publication US9421209B2, “Kinase modulators” (Rhizen Pharmaceuticals SA, priority 2009, dated 2016).

Assays:
[1] = target: P110 δ/Pi3K δ (Homo sapiens, UniProt O00329); test: Fluorescent (HTRF) determination of PI3K enzyme activity, δ isoform; format: biochemical; parameters: inhibition: dose or concentration left out as unconfirmed
Procedure, shortened: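 IC50 fitted from percent inhibition relative to blank and enzyme-only wells. Human PI3Kδ converts PIP2 to PIP3 after addition of 400 μM ATP solution, 30 min at room temperature. Product read by time-resolved FRET after stop and 6–18 h dark incubation with detection reagents.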

[2] = target: P110β (Homo sapiens, UniProt P42338); test: Fluorescent (HTRF) determination of PI3K enzyme activity, β isoform; format: biochemical
P110β, sequence (P42338 whole entry, canonical isoform): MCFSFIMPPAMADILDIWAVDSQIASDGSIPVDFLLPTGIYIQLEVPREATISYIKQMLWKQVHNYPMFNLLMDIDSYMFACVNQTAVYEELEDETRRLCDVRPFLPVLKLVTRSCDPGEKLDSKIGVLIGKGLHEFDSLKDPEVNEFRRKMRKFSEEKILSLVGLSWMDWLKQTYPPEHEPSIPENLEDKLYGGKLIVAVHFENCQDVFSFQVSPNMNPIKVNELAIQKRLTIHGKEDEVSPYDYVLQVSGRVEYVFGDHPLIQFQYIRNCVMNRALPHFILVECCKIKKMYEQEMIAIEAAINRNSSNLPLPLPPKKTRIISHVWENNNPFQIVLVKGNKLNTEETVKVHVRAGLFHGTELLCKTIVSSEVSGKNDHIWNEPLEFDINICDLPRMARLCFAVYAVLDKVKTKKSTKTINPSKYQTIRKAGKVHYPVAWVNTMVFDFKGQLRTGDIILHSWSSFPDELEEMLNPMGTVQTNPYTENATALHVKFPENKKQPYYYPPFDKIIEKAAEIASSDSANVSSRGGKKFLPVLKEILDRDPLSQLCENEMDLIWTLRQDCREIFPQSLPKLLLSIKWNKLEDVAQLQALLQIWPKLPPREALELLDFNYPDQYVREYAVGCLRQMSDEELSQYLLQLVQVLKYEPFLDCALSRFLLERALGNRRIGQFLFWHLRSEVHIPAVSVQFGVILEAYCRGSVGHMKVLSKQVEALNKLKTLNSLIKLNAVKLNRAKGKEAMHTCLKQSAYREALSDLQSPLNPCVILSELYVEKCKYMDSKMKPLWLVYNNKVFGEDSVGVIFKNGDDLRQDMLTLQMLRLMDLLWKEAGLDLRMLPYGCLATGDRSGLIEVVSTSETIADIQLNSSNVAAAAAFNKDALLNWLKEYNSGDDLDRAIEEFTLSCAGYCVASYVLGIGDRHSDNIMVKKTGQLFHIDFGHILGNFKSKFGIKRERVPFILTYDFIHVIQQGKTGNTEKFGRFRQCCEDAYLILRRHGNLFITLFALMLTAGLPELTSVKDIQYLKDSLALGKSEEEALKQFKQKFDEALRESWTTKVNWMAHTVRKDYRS
P110β, sequence (P27986 whole entry partner, canonical isoform): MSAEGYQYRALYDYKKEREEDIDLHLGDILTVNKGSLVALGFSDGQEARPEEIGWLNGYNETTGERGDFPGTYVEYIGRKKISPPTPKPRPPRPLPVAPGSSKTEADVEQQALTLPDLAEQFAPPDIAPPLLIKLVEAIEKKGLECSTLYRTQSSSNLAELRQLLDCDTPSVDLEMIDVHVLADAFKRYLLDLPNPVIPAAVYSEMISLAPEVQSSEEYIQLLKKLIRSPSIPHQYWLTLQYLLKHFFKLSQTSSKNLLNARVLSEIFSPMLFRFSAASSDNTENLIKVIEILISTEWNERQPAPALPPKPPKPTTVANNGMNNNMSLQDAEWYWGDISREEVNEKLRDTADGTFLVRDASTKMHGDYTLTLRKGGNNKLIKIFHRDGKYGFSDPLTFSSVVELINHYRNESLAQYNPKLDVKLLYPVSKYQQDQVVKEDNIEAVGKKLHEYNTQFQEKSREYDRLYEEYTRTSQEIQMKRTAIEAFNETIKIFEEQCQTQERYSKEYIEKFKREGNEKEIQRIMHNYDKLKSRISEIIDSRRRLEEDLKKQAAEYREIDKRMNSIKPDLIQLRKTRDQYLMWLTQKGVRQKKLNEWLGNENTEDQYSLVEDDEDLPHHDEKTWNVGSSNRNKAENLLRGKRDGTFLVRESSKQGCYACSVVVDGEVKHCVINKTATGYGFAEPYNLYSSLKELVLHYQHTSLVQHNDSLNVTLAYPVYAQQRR
Source text: Assay 1: Fluorescent determination of PI3Kinase Kinase enzyme activity
Phosphoinositide 3 kinases (PI3K) belong to a class of lipid kinases that play a critical role in the regulation of several key cellular processes. The PI3K are capable of phosphorylating the 3-hydroxy position of phosphoinositols thereby generating second messengers involved in downstream signalling events. The homogenous time resolved fluorescence (HTRF) assay allows detection of 3,4,5-triphosphate (PIP3) formed as a result of phosphorylation of phosphotidylinositol 4,5-biphosphate (PIP2) by PI3K isoforms such as α, β, γ or δ.
PI3K isoform activity for α, β, γ or δ was determined using a PI3K human HTRF™ Assay Kit (Millipore, Billerica, Mass.) with modifications. All incubations were carried out at room temperature. Briefly, 0.5 μl of 40× inhibitor (in 100% DMSO) or 100% DMSO were added to each well of a 384-well black plate (Greiner Bio-One, Monroe, N.C.) containing 14.5 μl 1× reaction buffer/PIP2 (10 mM MgCl2, 5 mM DTT, 1.38 μM PIP2) mix with or without enzyme and incubated for 10 min. After the initial incubation, 5 μl/well of 400 μM ATP was added and incubated for an additional 30 minutes. Reaction was terminated by adding 5 μl/well stop solution (Millipore, Billerica, Mass.). Five microliters of detection mix (Millipore, Billerica, Mass.) were then added to each well and was incubated for 6-18 h in the dark. HRTF ratio was measured on a microplate reader (BMG Labtech., Germany) at an excitation wavelength of 337 nm and emission wavelengths of 665 and 620 nm with an integration time of […]. Data were analyzed using Graphpad Prism (Graphpad software; San Diego Calif.) for IC50 determination. Percent inhibition was calculated based on the values for the blank and enzyme controls. The results are provided below in Table 2 & 3.

P110 δ/Pi3K δ, sequence (O00329 whole entry, canonical isoform): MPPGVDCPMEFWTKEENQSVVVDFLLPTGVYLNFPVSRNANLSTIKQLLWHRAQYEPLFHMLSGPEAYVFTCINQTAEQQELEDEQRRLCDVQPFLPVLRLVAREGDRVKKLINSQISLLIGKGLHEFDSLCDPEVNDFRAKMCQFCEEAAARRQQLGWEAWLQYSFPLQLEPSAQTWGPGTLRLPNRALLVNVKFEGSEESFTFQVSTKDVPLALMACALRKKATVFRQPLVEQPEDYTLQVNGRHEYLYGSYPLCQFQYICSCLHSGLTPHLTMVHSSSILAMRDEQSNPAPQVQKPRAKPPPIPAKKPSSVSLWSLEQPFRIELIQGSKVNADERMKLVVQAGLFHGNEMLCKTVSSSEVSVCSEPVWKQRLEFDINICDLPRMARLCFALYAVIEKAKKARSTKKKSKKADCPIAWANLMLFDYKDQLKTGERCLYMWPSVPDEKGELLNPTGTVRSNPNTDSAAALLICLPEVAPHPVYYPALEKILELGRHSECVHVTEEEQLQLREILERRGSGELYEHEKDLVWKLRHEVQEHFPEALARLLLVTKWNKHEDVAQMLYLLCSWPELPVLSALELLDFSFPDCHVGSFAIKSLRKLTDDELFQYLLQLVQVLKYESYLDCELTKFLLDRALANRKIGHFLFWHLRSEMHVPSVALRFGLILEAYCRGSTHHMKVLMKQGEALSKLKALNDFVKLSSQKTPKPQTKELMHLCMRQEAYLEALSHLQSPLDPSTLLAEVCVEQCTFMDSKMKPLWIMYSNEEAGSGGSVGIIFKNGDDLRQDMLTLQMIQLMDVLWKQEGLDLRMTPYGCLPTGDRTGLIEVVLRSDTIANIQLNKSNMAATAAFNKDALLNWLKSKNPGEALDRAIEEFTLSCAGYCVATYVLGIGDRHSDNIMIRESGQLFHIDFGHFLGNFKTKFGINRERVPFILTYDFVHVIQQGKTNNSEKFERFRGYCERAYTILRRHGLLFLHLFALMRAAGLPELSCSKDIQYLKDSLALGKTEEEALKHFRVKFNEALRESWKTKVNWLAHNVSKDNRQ
P110 δ/Pi3K δ, sequence (P27986 whole entry partner, canonical isoform): as the sequence (P27986 whole entry partner, canonical isoform) above

Row | inhibition [1] | melting point | inhibition at 1 µM [2] | SMILES
1 | < 50% | 229 to 232 °C | 25 to 50% | CCOc1ccc(-c2nn(C(C)c3oc4ccccc4c(=O)c3-c3cccc(F)c3)c3ncnc(N)c23)cc1 (stereo not drawn) [Example 156, 2-(1-(4-amino-3-(4-ethoxyphenyl)-1H-pyrazolo[3,4-d]pyrimidin-1-yl)ethyl)-3-(3-fluorophenyl)-4H-chromen-4-one]
2 | < 50% | 178 to 182 °C | < 25% | CCCOc1cccc(-c2nn(C(C)c3oc4ccccc4c(=O)c3-c3cccc(F)c3)c3ncnc(N)c23)c1 (stereo not drawn) [Example 154, 2-(1-(4-amino-3-(3-propoxyphenyl)-1H-pyrazolo[3,4-d]pyrimidin-1-yl)ethyl)-3-(3-fluorophenyl)-4H-chromen-4-one]
3 | < 50% | 162 to 165 °C | 25 to 50% | CCOc1cccc(-c2nn(C(C)c3oc4ccccc4c(=O)c3-c3cccc(F)c3)c3ncnc(N)c23)c1 (stereo not drawn) [Example 150, 2-(1-(4-amino-3-(3-ethoxyphenyl)-1H-pyrazolo[3,4-d]pyrimidin-1-yl)ethyl)-3-(3-fluorophenyl)-4H-chromen-4-one]
4 | < 50% | 259 to 262 °C | 25 to 50% | CC(c1oc2ccccc2c(=O)c1-c1cccc(F)c1)n1nc(-c2ccc(S(C)(=O)=O)cc2)c2c(N)ncnc21 (stereo not drawn) [Example 149, 2-(1-(4-amino-3-(4-(methylsulfonyl)phenyl)-1H-pyrazolo[3,4-d]pyrimidin-1-yl)ethyl)-3-(3-fluorophenyl)-4H-chromen-4-one]

Second part, the compound before the results:

Row | SMILES | inhibition [1] | melting point | inhibition at 1 µM [2]
5 | CC(c1oc2ccccc2c(=O)c1-c1cccc(F)c1)n1nc(-c2ccc3c(c2)OCCCO3)c2c(N)ncnc21 (stereo not drawn) [Example 136, 2-(1-(4-amino-3-(3,4-dihydro-2H-benzo[b][1,4]dioxepin-7-yl)-1H-pyrazolo[3,4-d]pyrimidin-1-yl)ethyl)-3-(3-fluorophenyl)-4H-chromen-4-one] | < 50% | 234 to 237 °C | 25 to 50%
6 | CC(c1oc2ccccc2c(=O)c1-c1cccc(F)c1)n1nc(-c2ccc(N(C)C)cc2)c2c(N)ncnc21 (stereo not drawn) [Example 148, 2-(1-(4-amino-3-(4-(dimethylamino)phenyl)-1H-pyrazolo[3,4-d]pyrimidin-1-yl)ethyl)-3-(3-fluorophenyl)-4H-chromen-4-one] | 50 to 100% | 214 to 217 °C | 50 to 100%
7 | CC(c1oc2ccccc2c(=O)c1-c1cccc(F)c1)n1nc(-c2csc(CO)c2)c2c(N)ncnc21 (stereo not drawn) [Example 114, 2-(1-(4-amino-3-(5-(hydroxymethyl)thiophen-3-yl)-1H-pyrazolo[3,4-d]pyrimidin-1-yl)ethyl)-3-(3-fluorophenyl)-4H-chromen-4-one] | 50 to 100% | 154 to 156 °C | < 25%
8 | CC(c1oc2ccccc2c(=O)c1-c1cccc(F)c1)n1nc(-c2ccc(N3CCOCC3)nc2)c2c(N)ncnc21 (stereo not drawn) [Example 137, 2-(1-(4-amino-3-(6-morpholinopyridin-3-yl)-1H-pyrazolo[3,4-d]pyrimidin-1-yl)ethyl)-3-(3-fluorophenyl)-4H-chromen-4-one] | < 50% | 269 to 271 °C | 25 to 50%
9 | O=c1c(-c2cccc(F)c2)c(CNc2ncnc3[nH]cnc23)oc2ccc(F)cc12 [Example 122, 2-((9H-purin-6-ylamino)methyl)-6-fluoro-3-(3-fluorophenyl)-4H-chromen-4-one] | < 50% | 229 to 232 °C | 50 to 100%
10 | CC(c1oc2ccccc2c(=O)c1-c1cccc(F)c1)n1nc(-c2ccc(OCc3ccccc3)cc2)c2c(N)ncnc21 (stereo not drawn) [Example 147, 2-(1-(4-amino-3-(4-(benzyloxy)phenyl)-1H-pyrazolo[3,4-d]pyrimidin-1-yl)ethyl)-3-(3-fluorophenyl)-4H-chromen-4-one] | < 50% | 176 to 178 °C | 25 to 50%
